Patent US20220288143A1, “PHARMACEUTICAL COMPOSITION FOR TREATING CANCER, COMPRISING VACCINIA VIRUS AND GRANULOPOIESIS INHIBITOR AS ACTIVE INGREDIENTS” (priority 2019, published 2022)

Experiments:
neutrophils [1] = assay: Neutrophil count (CBC), Renca-transplanted mice, lenalidomide or hydroxyurea (Exp. Ex. 17); assay type: in vivo, mouse; settings: day 5, 30 mg/kg i.p. daily, compared with group administered saline
Method: Balb/c mice (female, 8-week-old) purchased from Orient Bio (Busan, Korea) were subjected to a one-week acclimatization period, and then allografted with Renca cancer cell line (Korea Cell Line Bank) at 5×10^6 cells. After another one-week acclimatization period, the mice were divided into 3 groups (n=3) and administered intraperitoneally with saline, hydroxyurea (30 mg/kg), and lenalidomide (30 mg/kg), respectively, daily from 1 day before the administration of the oncolytic virus to day 4 after the administration.
As a result of performing a complete blood count (CBC) by sacrificing the mice in each group on day 5 after administering the oncolytic virus, it was confirmed that the neutrophil count of the mice in the group administered with lenalidomide was reduced as compared with the group administered with saline, except for one outlier mouse.

neutrophils [2] = assay type: in vivo, mouse; settings: Renca mice; day 8; compared with negative control group (saline); hydroxyurea 30 mg/kg i.p.

Compound | neutrophil count (neutrophils [1]) | absolute neutrophil count (ANC) (neutrophils [2])
NC(=O)NO [hydroxyurea] | significantly lower | decreased
Nc1cccc2c1CN(C1CCC(=O)NC1=O)C2=O (stereo not drawn) [lenalidomide] | reduced | –
